Test results published in patent US9493455B2, “Azaindole derivatives as inhibitors of protein kinases” (ORIBASE PHARMA, priority 2012, dated 2016).

Tests used:
Assay in all cases: In vitro cell proliferation assay (MTT)
Type in all cases: cell-based
PC-3 = details: Homo sapiens, PC-3, 72 h
Summary of the method: (§1)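 For these tumour lines, 5×10^3 cells were plated per well. Compound exposure lasted 72 hr across concentrations of 10 nM to 3 μM, with duplicate wells per concentration. Viable cell proliferation was determined by MTT assay.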

HuH7 = details: Homo sapiens, Huh-7, 72 h
Summary of the method: as §1

BaF3 WT = details: Mus musculus, BaF3, 72 h
Summary of the method: as §1

HT29 = details: Homo sapiens, HT-29, 72 h
Summary of the method: as §1

Caki-2 = details: Homo sapiens, CAKI-2, 72 h
Summary of the method: as §1

HRMEC = details: 72 h
Summary of the method: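 Growth is assessed with the tetrazolium dye MTT following a 72 hr incubation with compound spanning 10 nM up to 3 μM, each dose tested twice on 5×10^3 plated cells per well.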

BaF3 G250E = details: Mus musculus, BaF3, 72 h
Summary of the method: as §1

HUVEC = details: Homo sapiens, 72 h
Experimental: Cancer cell lines (5×10^3 cells per well) or HUVEC (1×10^4 cells per well) or HRMEC (1×10^4 cells per well) were distributed in 96-well plates and incubating in duplicate with escalating concentrations (10 nM to 3 μM) of compounds for 72 hr. Cell proliferation was measured using MTT (3 [4,5-dimethylthiazol-2-yl]-2,5-diphenyltetrazolium bromide).

BaF3 E255K + M351T = details: Mus musculus, BaF3, 72 h
Summary of the method: as §1

MDA-MB-231 = details: Homo sapiens, MDA-MB-231, 72 h
Summary of the method: as §1

HuH6 Clone 5 = details: HUH-6-clone5, 72 h
Summary of the method: as §1

HuCCT1 = details: Homo sapiens, HuCCT-1, 72 h
Summary of the method: as §1

H1975 = details: Homo sapiens, NCI-H1975, 72 h
Summary of the method: as §1

HepG2 = details: Homo sapiens, HepG2, 72 h
Summary of the method: as §1

A549 = details: Homo sapiens, A549, 72 h
Summary of the method: as §1

BxPC-3 = details: Homo sapiens, BXPC-3, 72 h
Summary of the method: as §1

HeLa = details: Homo sapiens, 72 h
Summary of the method: as §1

BaF3 G250A = details: Mus musculus, BaF3, 72 h
Summary of the method: as §1

BaF3 T315I = details: Mus musculus, BaF3, 72 h
Summary of the method: as §1

COC(=O)c1cc2cc(NCc3cc(NC(=O)c4ccc(CN5CCN(C)CC5)c(C(F)(F)F)c4)ccc3C)cnc2[nH]1 [OR0512]
EC50 (PC-3): 100 to 1000 nM | EC50 (HuH7): ≤ 100 nM | EC50 (BaF3 WT): ≤ 100 nM | EC50 (HT29): 100 to 1000 nM | EC50 (Caki-2): ≤ 100 nM | EC50 (HRMEC): ≤ 100 nM | EC50 (BaF3 G250E): ≤ 100 nM | EC50 (HUVEC): ≤ 100 nM | EC50 (BaF3 E255K + M351T): ≤ 100 nM | EC50 (MDA-MB-231): ≤ 100 nM | EC50 (HuH6 Clone 5): ≥ 1000 nM | EC50 (HuCCT1): 100 to 1000 nM | EC50 (H1975): 100 to 1000 nM | EC50 (HepG2): ≤ 100 nM | EC50 (A549): ≤ 100 nM | EC50 (BxPC-3): ≤ 100 nM | EC50 (HeLa): 100 to 1000 nM | EC50 (BaF3 G250A): ≤ 100 nM | EC50 (BaF3 T315I): ≤ 100 nM
